System: CT-DNA
Assay: DNA binding by cyclic voltammetry
Set-up: species or system calf thymus
Settings: for K[red]/K[oxi], (calcd): Nernst equation; for K[red]/K[oxi], found (I): from method I; for S (bp), binding site size: method II; for Kb method I, (oxi): oxidation; for Kb method I, red: reduction; for Es° = (Eb° − Ef°): shift of formal potential on DNA binding
Description: The CV titration for free substances was conducted at 10 μM at 25°C in the presence of Tris-HCl buffer solution (pH: 7.4). While CT-DNA increases (0–10 μM) in each sample solution, a shift in potential, including variations in the peak currents of anodic and cathodic sides, has been monitored.
The CV technique is one of the most important tools for investigating the DNA-complex adduct's binding mechanism. The CV properties of all test samples in the presence and absence of DNA were executed at a scan rate (v) 0.1 Vs^−1 with a potential range of +2 to −2 in a Tris-HCl (5 mM)/NaCl (50 mM) (pH = 7.2) solution. The M^1+/M^2+ redox couple is caused by complexes that reveal a single anodic and cathodic peak. […] (Figure S29 and Table 6).
ΔEP is peak-to-peak separation = (EPa − EPc); E°(or) E1/2 is denoted as formal electrode potential = 1/2 (EPa + EPc); Es°=(Eb° − Ef°)Eb° and Ef° are represented as the formal electrode potential of the M^1+/M^2+ couple in the bound and free forms, respectively. Es° = +19 mV (HL), +34 mV (1a), and +31 mV (2a). Ipa is anodic peak current, Ipc is cathodic peak current. K^1+ is binding constant of reduction process, K^2+ is binding constant of oxidation process, S is represented as binding site size of base pairs (bp) with a molecule of complex, Scan rate is 100 mV·s^−1, binding constant (Kb) values observed from the linear plots of log (1/[DNA]) vs. log (I/I0 − I) for oxidation and reduction, (I0 − IDNA)/IDNA = Cp/Cf versus [DNA] and Ip ^2 versus (Ipo ^2 −Ip ^2 )/[DNA] by methods I, II, and III, respectively.(24) DiffusioncoefficientD0=7.51×10^−5 SlopelogI0 −I/I=log DNA+logKb, where I0 and I are represented as the peak currents of the compound in the absence and presence of DNA.(25) log DNA=logI0 −I/I+log1/Kb log1/DNA=logI/I0−I+logKb, (26) I0 −I/I=KbDNA, (27) I0 −I/I=Cb/Cf, where Cf and Cb are denoted as the free substance concentration and DNA-interacted compound, respectively. (29) was obtained by comparing equations (27) and (28).(28) Cb/Cf=KbDNA, (29) Cb/Cf=Kbfreebasrpairs/S , (30) Cb/Cf=KbDNA/2 S +1.
S is denoted as binding site size (bp), and Kb are estimated from (31) with the help of S = (intercept/4)^1/2 and (Kb = 2S (slope/intercept), respectively. Nernst equations are as follows:(31) Es°=Eb°−Ef°=0.0591 /n logKred/Koxi, (32) Kred/Koxi=Ant. log nEb°−Ef°/0.0591.
E 1/2 or Eb° and Ef° are the formal electrode potentials of the M^1+/M^2+ couple in their bound and free forms, respectively.(33) Ip 2 =1/KbDNAIp0 2 −Ip 2 +Ip0 2 −DNA, where Ipo and Ip are denoted as the peak currents of the complexes (1–3) in the absence and presence of DNA.(34) Ipa=2.69×10^5 n^3/2 α^1/2 AC0 ∗D0 1/2 v^1/2 , (35) Ipa=13314.7D0 1/2 v^1/2 , where Ipa is denoted as the anodic peak current in amperes, n is represented as the number of electrons participating in the redox (M^1+/M^2+) process (n = 1), charge transfer coefficient (or) activation coefficient (α)≈0.5 for quasireversible systems, which also calculated from Bard–Faulkner relation(35a) α=47.7/EPa−EP/2.
C0^∗ ⟶ Bulk concentration of the compound, A is denoted as the cross-sectional area of the working electrode (glassy carbon) in cm^2 (A∼0.07 cm^2), D0 is denoted as diffusion coefficient (cm^2 s^−1) of the M^1+/M^2+ couple in the free and bound forms, respectively, and v is denoted as the potential scan rate at 0.1 Volt·s^−1. While the substances often bind to deoxyribonucleic acid through intercalation, the peak potential shifts in a positive direction. When the compounds bind to deoxyribonucleic acid via minor or major grooves or electrostatic attractions, the peak potential shifts occur in a negative direction. […]

Row | Compound | Kb method II [M⁻¹] | Kb method III [M⁻¹] | K[red]/K[oxi], (calcd) | K[red]/K[oxi], found (I) | S (bp), binding site size [bp] | Kb method I, (oxi) [M⁻¹] | Kb method I, red [M⁻¹] | Es° = (Eb° − Ef°)
1 | Oc1ccccc1N=Cc1ccc(N2CCOCC2)cc1 [(HL), 2-(4-morpholinobenzylideneamino)phenol] | 2443 | 4837 | 2.0964 | 0.7214 | 0.452 | 5280 | 3809 | +19 mV
2 | [Cu+2].[O-]c1ccccc1N=Cc1ccc(N2CCOCC2)cc1.[O-]c1ccccc1N=Cc1ccc(N2CCOCC2)cc1.c1ccc(-c2ccccn2)nc1 [(1a), [Cu(L)2(bpy)]] | 70773 | 21567 | 3.76 | 0.8628 | 0.123 | 25330 | 21854 | +34 mV
3 | [O-]c1ccccc1N=Cc1ccc(N2CCOCC2)cc1.[O-]c1ccccc1N=Cc1ccc(N2CCOCC2)cc1.[Zn+2].c1ccc(-c2ccccn2)nc1 [(2a), [Zn(L)2(bpy)]] | 27693 | 18486 | 3.34 | 0.8268 | 0.270 | 24610 | 20348 | +31 mV

— paper PMC9763021, “Comprehensive Assessment of Biomolecular Interactions of Morpholine-Based Mixed Ligand Cu(II) and Zn(II) Complexes of 2,2′-Bipyridine as Potential Anticancer and SARS-CoV-2 Agents: A Synergistic Experimental and Structure-Based Virtual Screening” (Bioinorganic Chemistry and Applications, 2022)
